# Measured values taken from patent EP4745138A1, “THIO-GLUTARIMIDO ISOINDOLINONE DERIVATIVE, BIFUNCTIONAL PROTEIN DEGRADER CONTAINING SAME, AND USES THEREOF” (Gluetacs Therapeutics (Shanghai) Co., Ltd., priority 2023, dated 2025).
# Where two headings read alike, the source gives them in different places.
# What was measured:
# MV-4-11 = assay: Tumor cell proliferation inhibition (CellTiter-Meiluncell Luminescent Cell Viability Assay); format: cell-based; details: Homo sapiens, 96 hours; for inhibition at 0.01 µM: MV4-11, 10 nM, read-out: Inhibition Rate at 10 nM (%); for inhibition at 0.5 µM: MV4-11, 500 nM, read-out: Inhibition Rate at 500 nM (%)
# Outline: (§1)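 Following overnight seeding, tumor cells received serial compound dilutions to final levels that included 10 nM and 500 nM. Viability was assessed by luminescence at the end of the specified exposure time. Cultures were kept at 37°C with 5% CO2.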
# FAK = target: T1, FAK (Homo sapiens, UniProt Q05397); assay: Western blot, target protein degradation in A549 Cell; format: cell-based; details: substrate protein remaining %, treated at 500 nM and 50 nM, 24 hours
# T1 construct: endogenous in cells; host or cells: A549
# T1 sequence (Q05397 whole entry): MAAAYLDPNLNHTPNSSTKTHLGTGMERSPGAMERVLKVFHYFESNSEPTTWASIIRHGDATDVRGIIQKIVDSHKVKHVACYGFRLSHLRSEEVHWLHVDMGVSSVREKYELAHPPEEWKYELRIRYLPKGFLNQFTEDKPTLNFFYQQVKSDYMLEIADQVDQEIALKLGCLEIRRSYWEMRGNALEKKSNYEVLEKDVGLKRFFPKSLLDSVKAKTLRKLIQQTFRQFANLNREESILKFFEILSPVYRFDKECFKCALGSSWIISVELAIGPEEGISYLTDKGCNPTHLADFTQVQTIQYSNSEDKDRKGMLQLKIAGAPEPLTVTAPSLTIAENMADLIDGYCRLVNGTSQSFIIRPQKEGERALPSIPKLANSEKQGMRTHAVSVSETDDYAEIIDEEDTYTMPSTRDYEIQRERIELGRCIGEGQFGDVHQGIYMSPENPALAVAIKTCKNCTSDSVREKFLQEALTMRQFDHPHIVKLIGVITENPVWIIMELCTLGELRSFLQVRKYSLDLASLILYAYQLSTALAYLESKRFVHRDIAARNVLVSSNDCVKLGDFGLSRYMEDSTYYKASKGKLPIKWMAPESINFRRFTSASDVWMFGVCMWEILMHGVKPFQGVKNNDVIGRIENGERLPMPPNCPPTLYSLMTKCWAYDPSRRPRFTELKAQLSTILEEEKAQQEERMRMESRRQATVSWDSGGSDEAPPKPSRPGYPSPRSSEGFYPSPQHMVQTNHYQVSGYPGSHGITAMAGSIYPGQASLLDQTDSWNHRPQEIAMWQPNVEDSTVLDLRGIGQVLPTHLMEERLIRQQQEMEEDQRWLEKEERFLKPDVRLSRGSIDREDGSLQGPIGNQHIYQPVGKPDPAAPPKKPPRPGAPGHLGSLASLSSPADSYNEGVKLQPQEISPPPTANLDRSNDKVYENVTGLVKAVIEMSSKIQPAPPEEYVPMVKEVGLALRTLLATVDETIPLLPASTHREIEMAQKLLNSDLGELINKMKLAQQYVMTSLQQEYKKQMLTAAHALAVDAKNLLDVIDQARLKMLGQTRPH
# Method: (§2) Conventional Western blot assay was performed to evaluate the effects of the compounds of the present disclosure on the expression of target proteins in cells.
# (§3) (1) Cell Seeding and Protein Harvesting: The selected cells were processed according to the cell seeding procedure and protein harvesting procedure in Table II-2. Table II-2 Cell Seeding and Protein Harvesting Procedures
# (§4) (2) To the collected supernatant, 5X SDS sample loading buffer was added, followed by denaturation at 95°C for 5 minutes. The denatured samples were then separated by SDS-PAGE electrophoresis on a polyacrylamide gel. Proteins were transferred to a nitrocellulose membrane (0.45 µm NC membrane), blocked with blocking buffer at room temperature for 1 hour, and subjected to antibody incubation and development procedures according to the antibody manufacturer's instructions (Cell Signaling Technology).
# (§5) Half-Maximal Degradation Concentration value (the drug concentration required for degrading proteins by 50%, abbreviated as DC50) reads method: comparing the grayscale values of Western blot bands from drug-treated samples with those from blank DMSO-treated controls, and identifying the drug concentration range at which the grayscale value is half that of the DMSO-treated control bands.
# (§6) DC50 values can be calculated using ImageJ software to measure grayscale values of Western blot bands from drug-treated samples. The concentration-response curve is fitted to estimate the drug concentration corresponding to half the grayscale value.
# (§7) Target protein remaining (%) refers to the percentage of target protein remaining in cells after treatment with protein degrader compounds.
# (§8) Calculation method for target protein remaining (%): Use ImageJ software to measure grayscale values of Western blot bands from drug (protein degrader)-treated samples. The grayscale value of drug-treated bands is divided by that of internal control protein bands, and the resulting quotient is normalized to obtain the relative percentage of remaining target protein after protein degrader treatment. Target protein degradation rate(%) = 1−target protein remaining(%). [formula]
# [1] = target: T2, human Cereblon WT GST-tagged protein (Homo sapiens, UniProt Q96SW2); assay: CRBN-binding affinity, HTRF (CEREBLON BINDING kit); details: for inhibition at 0.5 µM: read-out: Inhibition Rate at 0.5 µM (%); for inhibition at 2 µM: read-out: Inhibition Rate at 2 µM (%)
# T2 construct: purchased CISBIO 64BDCRBNPEH
# T2 sequence (Q96SW2 whole entry): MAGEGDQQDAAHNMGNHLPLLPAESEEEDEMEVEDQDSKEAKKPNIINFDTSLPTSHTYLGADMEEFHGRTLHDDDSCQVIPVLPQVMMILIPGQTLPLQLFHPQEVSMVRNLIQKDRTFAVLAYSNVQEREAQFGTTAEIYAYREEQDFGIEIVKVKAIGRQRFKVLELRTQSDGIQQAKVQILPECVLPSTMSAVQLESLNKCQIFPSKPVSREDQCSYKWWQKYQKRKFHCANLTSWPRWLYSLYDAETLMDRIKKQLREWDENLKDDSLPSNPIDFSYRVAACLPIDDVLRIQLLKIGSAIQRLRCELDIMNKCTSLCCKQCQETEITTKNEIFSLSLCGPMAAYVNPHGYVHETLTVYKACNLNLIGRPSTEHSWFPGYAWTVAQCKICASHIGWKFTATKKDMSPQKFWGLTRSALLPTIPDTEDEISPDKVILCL
# Outline: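 Readout is homogeneous time-resolved fluorescence, measuring displacement of a thalidomide-red tracer from GST-tagged Cereblon detected by a europium anti-GST antibody. Compounds were tested at final 2 µM and 0.5 µM after dilution in diluent #9 (1X).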
# MCF-7 = assay: Tumor cell proliferation inhibition (CellTiter-Meiluncell Luminescent Cell Viability Assay); format: cell-based; details: Homo sapiens, 96 hours, Table I-2, ALK inhibitors; for inhibition at 0.01 µM: MCF7, 10 nM, read-out: Inhibition Rate at 10 nM (%); for inhibition at 0.5 µM: MCF7, 500 nM, read-out: Inhibition Rate at 500 nM (%)
# Outline: as §1
# MM.1S = assay: as above; format: cell-based; details: Homo sapiens, MM1.S, MM.1S, 96 hours, Table I-2, ALK inhibitors; for inhibition at 0.01 µM: 10 nM, read-out: Inhibition Rate at 10 nM (%); for inhibition at 0.5 µM: 500 nM, read-out: Inhibition Rate at 500 nM (%)
# Outline: as §1
# ALK = target: T3, ALK (Homo sapiens, UniProt Q96SW2+Q9HC35+Q9UM73); assay: Western blot, target protein degradation in H2228 Cell; format: cell-based; details: substrate protein remaining %, treated at 500 nM and 50 nM, 24 hours
# T3 construct: endogenous in cells; host or cells: H2228
# T3 sequence (Q9HC35+Q9UM73 fused): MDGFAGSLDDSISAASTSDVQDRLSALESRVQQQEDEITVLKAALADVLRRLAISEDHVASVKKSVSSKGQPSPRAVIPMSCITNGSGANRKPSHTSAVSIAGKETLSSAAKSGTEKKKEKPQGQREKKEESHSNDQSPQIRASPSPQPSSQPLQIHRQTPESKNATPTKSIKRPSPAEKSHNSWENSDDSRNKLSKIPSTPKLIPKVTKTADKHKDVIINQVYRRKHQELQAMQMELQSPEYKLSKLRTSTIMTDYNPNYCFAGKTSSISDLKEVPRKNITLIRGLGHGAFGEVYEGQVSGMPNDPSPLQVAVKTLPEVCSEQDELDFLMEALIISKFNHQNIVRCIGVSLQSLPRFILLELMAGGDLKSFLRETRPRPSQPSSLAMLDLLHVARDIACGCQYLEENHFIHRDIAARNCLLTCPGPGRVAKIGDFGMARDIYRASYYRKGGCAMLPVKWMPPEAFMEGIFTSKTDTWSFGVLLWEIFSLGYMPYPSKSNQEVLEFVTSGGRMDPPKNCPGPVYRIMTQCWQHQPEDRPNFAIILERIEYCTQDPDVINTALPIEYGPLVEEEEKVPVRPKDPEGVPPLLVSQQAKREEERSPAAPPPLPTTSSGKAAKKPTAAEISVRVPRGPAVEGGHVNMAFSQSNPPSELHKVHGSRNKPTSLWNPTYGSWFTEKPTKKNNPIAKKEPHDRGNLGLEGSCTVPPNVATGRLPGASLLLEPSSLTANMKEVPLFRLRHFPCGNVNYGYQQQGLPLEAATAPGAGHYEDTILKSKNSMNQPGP
# T3 sequence (Q96SW2 whole entry): as the sequence (Q96SW2 whole entry) above
# T3 sequence (Q16531 whole entry partner): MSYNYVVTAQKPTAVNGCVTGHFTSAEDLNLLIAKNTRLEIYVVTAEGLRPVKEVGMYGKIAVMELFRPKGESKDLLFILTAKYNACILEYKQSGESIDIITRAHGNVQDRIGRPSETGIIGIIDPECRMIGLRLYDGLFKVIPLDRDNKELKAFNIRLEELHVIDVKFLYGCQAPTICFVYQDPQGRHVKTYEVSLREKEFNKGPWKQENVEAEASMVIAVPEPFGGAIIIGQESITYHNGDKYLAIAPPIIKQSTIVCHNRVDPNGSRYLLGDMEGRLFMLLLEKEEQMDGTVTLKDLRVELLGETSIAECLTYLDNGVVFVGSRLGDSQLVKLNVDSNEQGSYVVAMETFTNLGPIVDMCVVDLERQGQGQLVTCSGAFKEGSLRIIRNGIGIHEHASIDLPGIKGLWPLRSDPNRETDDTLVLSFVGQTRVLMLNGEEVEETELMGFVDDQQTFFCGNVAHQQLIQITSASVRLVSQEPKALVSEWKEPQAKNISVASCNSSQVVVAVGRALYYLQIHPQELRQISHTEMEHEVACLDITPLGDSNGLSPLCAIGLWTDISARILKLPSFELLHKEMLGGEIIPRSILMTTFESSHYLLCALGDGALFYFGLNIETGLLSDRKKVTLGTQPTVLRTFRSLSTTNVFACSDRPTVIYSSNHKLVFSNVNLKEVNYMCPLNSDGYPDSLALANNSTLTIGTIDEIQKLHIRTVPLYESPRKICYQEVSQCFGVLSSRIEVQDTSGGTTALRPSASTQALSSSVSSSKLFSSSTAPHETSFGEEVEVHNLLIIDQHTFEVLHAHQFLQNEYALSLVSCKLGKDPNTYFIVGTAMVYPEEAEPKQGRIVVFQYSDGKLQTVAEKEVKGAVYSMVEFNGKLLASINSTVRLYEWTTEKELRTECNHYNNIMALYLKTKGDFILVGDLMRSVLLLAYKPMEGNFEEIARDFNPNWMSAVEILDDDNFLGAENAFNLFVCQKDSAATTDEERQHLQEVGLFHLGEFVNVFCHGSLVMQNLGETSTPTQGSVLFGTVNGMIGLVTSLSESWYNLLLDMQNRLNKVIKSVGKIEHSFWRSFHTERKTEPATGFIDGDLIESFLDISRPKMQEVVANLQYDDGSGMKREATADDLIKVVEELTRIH
# Method: as §2, §3, §4, §5, §6, §7, §8
# SW620 = assay: Tumor cell proliferation inhibition (CellTiter-Meiluncell Luminescent Cell Viability Assay); format: cell-based; details: Homo sapiens, 96 hours, Table I-3, EGFR inhibitors
# Outline: as §1
# RPMI-8226 = assay: as above; format: cell-based; details: Homo sapiens, 96 hours, Table I-3, EGFR inhibitors
# Outline: as §1
# H1975 = assay: as above; format: cell-based; details: Homo sapiens, 96 hours, Table I-3, EGFR inhibitors
# Outline: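 Luminescent viability read-out (CellTiter-Meiluncell) after compound exposure for a specified time; IC50 determined. Seeding was done the day before dosing with serially diluted compound, final concentrations including 500 nM and 10 nM. Culture at 37°C, 5% CO2.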
SMILES,inhibition at 0.5 µM [1],inhibition at 2 µM [1],Degradation of substrate protein FAK (FAK),"inhibition at 0.01 µM (MV-4-11; Table I-2, ALK inhibitors)","inhibition at 0.5 µM (MV-4-11; Table I-2, ALK inhibitors)",inhibition at 0.01 µM (MCF-7),inhibition at 0.5 µM (MCF-7),inhibition at 0.01 µM (MM.1S),inhibition at 0.5 µM (MM.1S),Degradation of substrate protein ALK (ALK),also measured
"Cc1cc(Nc2ncc(Cl)c(Nc3ccccc3S(=O)(=O)C(C)C)n2)c(OC(C)C)cc1C1CCN(Cc2ccc3c(c2)C(=S)N(C2CCC(=O)NC2=O)C3)CC1 (stereo not shown) [GT-08678, 3-(6-((4-(4-((5-chloro-4-((2-(isopropylsulfonyl)pheny 1)amino)pyrimidin-2-yl)amino)-5-isopropoxy-2-methylphenyl)piperidin-1-yl)methyl)-1-thioxoisoindolin-2-yl)piperidine-2,6-dione]",40 to 53%,60 to 80%,–,–,–,-20 to -10%,40 to 50%,0 to 10%,50 to 60%,A (0% ≤ substrate protein remaining % ≤ 80%),–
"COc1cc(N2CCN(Cc3ccc4c(c3)CN(C3CCC(=O)NC3=O)C4=S)CC2)ccc1Nc1ncc(Cl)c(Nc2ccccc2P(C)(C)=O)n1 (stereo not shown) [GT-08675, 3-(5-((4-(4-((5-chloro-4-((2-(dimethylphosphoryl)phenyl)amino)pyrimidin-2-yl)amino)-3-methoxyphenyl)piperazin-1-yl)methyl)-1-thioxoisoindolin-2-yl)piperidine-2,6-dione]",80 to 100%,80 to 100%,–,10 to 20%,70 to 80%,20 to 30%,40 to 50%,10 to 20%,30 to 40%,A (0% ≤ substrate protein remaining % ≤ 80%),–
"C#Cc1cccc(Nc2ncnc3cc(OCCOC)c(OCCOC)cc23)c1 [erlotinib, Erlotinib, reference compound]",–,–,–,–,–,–,–,–,–,–,"inhibition at 0.01 µM (SW620; SW-620, 10 nM, read-out: Inhibition Rate at 10 nM (%)): 10 to 20%; inhibition at 0.5 µM (SW620; SW-620, 500 nM, read-out: Inhibition Rate at 500 nM (%)): 10 to 20%; inhibition at 0.01 µM (MV-4-11; Table I-3, EGFR inhibitors): 0 to 5%; inhibition at 0.5 µM (MV-4-11; Table I-3, EGFR inhibitors): 10 to 20%; inhibition at 0.01 µM (RPMI-8226; 10 nM, read-out: Inhibition Rate at 10 nM (%)): 20 to 30%; inhibition at 0.5 µM (RPMI-8226; 500 nM, read-out: Inhibition Rate at 500 nM (%)): 20 to 30%; inhibition at 0.01 µM (H1975; NCI-H1975, 10 nM, read-out: Inhibition Rate at 10 nM (%)): 0 to 5%; inhibition at 0.5 µM (H1975; NCI-H1975, 500 nM, read-out: Inhibition Rate at 500 nM (%)): 0 to 5%"
"CNC(=O)c1ccccc1Nc1cc(Nc2cc(C)c(C3CCN(Cc4ccc5c(c4)CN(C4CCC(=O)NC4=O)C5=S)CC3)cc2OC(C)C)ncc1C(F)(F)F (stereo not shown) [GT-08782, 2-((2-((4-(1-((2-(2,6-dioxopiperidin-3-yl)-1-thioxoisoindolin-5-yl)methyl)piperidin-4-yl)-2-isopropoxy-5-methylphenyl)amino)-5-(trifluoromethyl)pyridin-4-yl)amino)-N-methylbenzamide]",–,–,A (0% ≤ substrate protein remaining % ≤ 80%),–,–,–,–,–,–,–,–
"Cc1cc(Nc2ncc(Cl)c(Nc3ccccc3S(=O)(=O)C(C)C)n2)c(OC(C)C)cc1C1CCN(Cc2cccc3c2CN(C2CCC(=O)NC2=O)C3=S)CC1 (stereo not shown) [GT-08676, 3-(4-((4-(4-((5-chloro-4-((2-(isopropylsulfonyl)pheny 1)amino)pyrimidin-2-yl)amino)-5-isopropoxy-2-methylphenyl)piperidin-1-yl)methyl)-1-thioxoisoindolin-2-yl)piperidine-2,6-dione]",40 to 53%,60 to 80%,–,40 to 50%,60 to 70%,40 to 50%,60 to 70%,10 to 20%,30 to 40%,A (0% ≤ substrate protein remaining % ≤ 80%),–

# Further lines, with some results ahead:
inhibition at 0.5 µM [1],inhibition at 2 µM [1],SMILES,Degradation of substrate protein FAK (FAK),"inhibition at 0.01 µM (MV-4-11; Table I-2, ALK inhibitors)","inhibition at 0.5 µM (MV-4-11; Table I-2, ALK inhibitors)",inhibition at 0.01 µM (MCF-7),inhibition at 0.5 µM (MCF-7),inhibition at 0.01 µM (MM.1S),inhibition at 0.5 µM (MM.1S),Degradation of substrate protein ALK (ALK),also measured
40 to 53%,60 to 80%,"CN(c1nccnc1CNc1nc(Nc2ccc(N3CCN(Cc4cccc5c4CN(C4CCC(=O)NC4=O)C5=S)CC3)cc2)ncc1C(F)(F)F)S(C)(=O)=O (stereo not shown) [GT-08783, N-(3-(((2-((4-(4-((2-(2,6-dioxopiperidin-3-yl)-1-thioxoisoindolin-4-yl)methyl)piperazin-1-yl)phenyl)amino)-5-(trifluoromethyl)pyrimidin-4-yl)amino)methyl)pyrazin-2-yl)-N-methylmethanesulfonamide]",A (0% ≤ substrate protein remaining % ≤ 80%),–,–,–,–,–,–,–,"inhibition at 0.01 µM (MV-4-11; Table I-12, FAK inhibitors): 20 to 30%; inhibition at 0.5 µM (MV-4-11; Table I-12, FAK inhibitors): 70 to 80%"
60 to 80%,80 to 100%,"COc1cc(N2CCN(Cc3ccc4c(c3)C(=S)N(C3CCC(=O)NC3=O)C4)CC2)ccc1Nc1ncc(Cl)c(Nc2ccccc2P(C)(C)=O)n1 (stereo not shown) [GT-08679, 3-(6-((4-(4-((5-chloro-4-((2-(dimethylphosphoryl)phenyl)amino)pyrimidin-2-yl)amino)-3-methoxyphenyl)piperazin-1-yl)methyl)-1-thioxoisoindolin-2-yl)piperidine-2,6-dione]",–,50 to 60%,80 to 100%,20 to 30%,40 to 50%,10 to 20%,20 to 30%,A (0% ≤ substrate protein remaining % ≤ 80%),–
60 to 80%,80 to 100%,"COc1cc(N2CCC(N(C)Cc3ccc4c(c3)C(=S)N(C3CCC(=O)NC3=O)C4)CC2)ccc1Nc1ncc(Cl)c(Nc2ccccc2P(C)(C)=O)n1 (stereo not shown) [GT-08680, 3-(6-(((1-(4-((5-chloro-4-((2-(dimethylphosphoryl)phenyl)amino)pyrimidin-2-yl)amino)-3-methoxyphenyl)piperidin-4-yl)(methyl)amino)methyl)-1-thioxoisoindolin-2-yl)piperidine-2,6-dione]",–,10 to 20%,60 to 70%,–,–,0 to 10%,50 to 60%,A (0% ≤ substrate protein remaining % ≤ 80%),–
53 to 60%,80 to 100%,"CS(=O)(=O)c1cccc(CNc2nc(Nc3ccc(N4CCN(Cc5cccc6c5CN(C5CCC(=O)NC5=O)C6=S)CC4)cc3)ncc2C(F)(F)F)c1 (stereo not shown) [GT-08784, 3-(4-((4-(4-((4-((3-(methylsulfonyl)benzyl)amino)-5-(trifluoromethyl)pyrimidin-2-yl)amino)phenyl)piperazin-1-yl)methyl)-1-thioxoisoindolin-2-yl)piperidine-2,6-dione]",A (0% ≤ substrate protein remaining % ≤ 80%),–,–,–,–,–,–,–,–
